A word on the EC50: it is the midpoint of the concentration-response curve.

The assay concerns GFP-SOD1 mutant aggregation, cell imaging. In words: inhibitors of mutant SOD1 aggregation, cell-based (AID 1613).

As to `CC[C@@]1(O)C(=O)OCc2c1cc1n(c2=O)Cc2cc3ccccc3nc2-1`, the half-maximal effective concentration (EC50) stood at 15 µM.

Compound `CC[C@H]1CN2CCc3cc(OC)c(OC)cc3C2C[C@@H]1CC1NCCc2cc(OC)c(OC)cc21` (some centres undefined) had an EC50 of 5 µM.

`CC(=O)O[C@H]1C(=O)[C@@]2(C)C([C@H](OC(=O)c3ccccc3)[C@]3(O)C[C@H](OC(=O)[C@H](O)[C@@H](NC(=O)c4ccccc4)c4ccccc4)C(C)=C1C3(C)C)[C@]1(OC(C)=O)CO[C@@H]1C[C@@H]2O` (some centres undefined) had an EC50 of 5 µM.

In turn, `CO[C@H]1[C@H](O)[C@H](O[C@H]2CC[C@]3(C)C4CC[C@]5(C)C(C6=CC(=O)OC6)CC[C@]5(O)C4CC[C@@H]3C2)O[C@@H](C)[C@@H]1O` (some centres undefined) displayed a half-maximal effective concentration (EC50) of 5 µM.

For the compound `O=C1c2c(O)ccc(O)c2C(=O)c2c(NCCNCCO)ccc(NCCNCCO)c21`, the half-maximal effective concentration (EC50) is 5 µM.

`C[C@H]1O[C@@H](O[C@H]2[C@@H](O)C[C@H](O[C@H]3[C@@H](O)C[C@H](O[C@H]4CC[C@]5(C)C6C[C@@H](O)[C@]7(C)[C@@H](C8=CC(=O)OC8)CC[C@]7(O)C6CC[C@@H]5C4)O[C@@H]3C)O[C@@H]2C)C[C@H](O)[C@@H]1O` (some centres undefined) had a concentration giving a half-maximal response (EC50) of 20 µM.

As for `C[C@H]1O[C@@H](O[C@H]2[C@@H](O)C[C@H](O[C@H]3[C@@H](O)C[C@H](O[C@H]4CC[C@]5(C)C6CC[C@]7(C)[C@@H](C8=CC(=O)OC8)CC[C@]7(O)C6CC[C@@H]5C4)O[C@@H]3C)O[C@@H]2C)C[C@H](O)[C@@H]1O` (some centres undefined), the concentration giving a half-maximal response (EC50) is 20 µM.

Take `C[n+]1c2cc(N)ccc2cc2ccc(N)cc21`: the EC50 amounted to 10 µM.

`C[C@@H]1C[C@@H]([C@H](O)CC2CC(=O)NC(=O)C2)C(=O)[C@@H](C)C1`: the concentration for a half-maximal effect (EC50) is 2 µM.

In turn, `COc1ccc(C[C@H]2NC[C@H](O)[C@H]2OC(C)=O)cc1` showed a half-maximal effective concentration (EC50) of 2 µM.

`C[C@]12CCC3C(CC[C@]4(O)C[C@@H](O)CC[C@]34C=O)[C@@]1(O)CCC2C1=CC(=O)OC1` (some centres undefined) yielded a 50% effective concentration (EC50) of 5 µM.

With `CO[C@H]1[C@H](O)[C@@H](O[C@H]2CC[C@]3(C=O)C4CC[C@]5(C)[C@@H](C6=CC(=O)OC6)CC[C@]5(O)C4CC[C@@H]3C2)O[C@@H](C)[C@@H]1O` (some centres undefined), the concentration for a half-maximal effect (EC50) was found to be 5 µM.

In turn, `CC(=O)O[C@H]1C[C@H](O[C@H]2[C@@H](O)C[C@H](O[C@H]3[C@@H](O)C[C@H](O[C@H]4CC[C@@]5(C)C(CCC6C5C[C@@H](O)[C@]5(C)[C@@H](C7=CC(=O)OC7)CC[C@]65O)C4)O[C@@H]3C)O[C@@H]2C)O[C@H](C)[C@H]1O[C@@H]1O[C@H](CO)[C@@H](O)[C@H](O)[C@H]1O` (some centres undefined) yielded an EC50 of 5 µM.

Consider `CCN(CC)CCNc1ccc(CO)c2sc3ccccc3c(=O)c12`, for which the EC50 came to 20 µM.

These data come from PubChem BioAssay AID1613 (NINDS Approved Drug Screening Program, 2009).
